Results: patent publication US20080051387A1, “TETRAHYDROPYRIDO[3,4-D]PYRIMIDINES AND RELATED ANALOGUES” (priority 2006, published 2008)

The compounds below were run against T1, chimeric human H3 receptor (Homo sapiens, UniProt Q9Y5N1) (assay: Chimeric human H3 receptor screening GTP binding assay (inhibition of histamine-stimulated GTP-gamma35S binding, Example 8)). Details: symbol ! in Ki; test compound 4 μM, 1 μM histamine; read-out: percent inhibition of agonist-induced GTP-gammaS binding to H3.
T1 construct: rat Galpha-i2 (Gnai2, rat); made in house; host or cells: Sf9 insect cells (baculovirus); P2 membranes
Assay type: biochemical
Procedure, shortened: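 Sf9 membranes co-expressing chimeric human H3 receptor and heterotrimeric G-protein (35 μg protein) incubated 60 min at room temperature with 4 μM compound, 1 μM histamine and 125 pM GTP-gamma35S in pH 7.4 buffer with 10 μM GDP. Filter-bound radioactivity, nonspecific (10 μM GTP-gammaS) subtracted, reported as % inhibition of histamine signal.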

T1 sequence (Q9Y5N1 with tags, fused parts or gaps): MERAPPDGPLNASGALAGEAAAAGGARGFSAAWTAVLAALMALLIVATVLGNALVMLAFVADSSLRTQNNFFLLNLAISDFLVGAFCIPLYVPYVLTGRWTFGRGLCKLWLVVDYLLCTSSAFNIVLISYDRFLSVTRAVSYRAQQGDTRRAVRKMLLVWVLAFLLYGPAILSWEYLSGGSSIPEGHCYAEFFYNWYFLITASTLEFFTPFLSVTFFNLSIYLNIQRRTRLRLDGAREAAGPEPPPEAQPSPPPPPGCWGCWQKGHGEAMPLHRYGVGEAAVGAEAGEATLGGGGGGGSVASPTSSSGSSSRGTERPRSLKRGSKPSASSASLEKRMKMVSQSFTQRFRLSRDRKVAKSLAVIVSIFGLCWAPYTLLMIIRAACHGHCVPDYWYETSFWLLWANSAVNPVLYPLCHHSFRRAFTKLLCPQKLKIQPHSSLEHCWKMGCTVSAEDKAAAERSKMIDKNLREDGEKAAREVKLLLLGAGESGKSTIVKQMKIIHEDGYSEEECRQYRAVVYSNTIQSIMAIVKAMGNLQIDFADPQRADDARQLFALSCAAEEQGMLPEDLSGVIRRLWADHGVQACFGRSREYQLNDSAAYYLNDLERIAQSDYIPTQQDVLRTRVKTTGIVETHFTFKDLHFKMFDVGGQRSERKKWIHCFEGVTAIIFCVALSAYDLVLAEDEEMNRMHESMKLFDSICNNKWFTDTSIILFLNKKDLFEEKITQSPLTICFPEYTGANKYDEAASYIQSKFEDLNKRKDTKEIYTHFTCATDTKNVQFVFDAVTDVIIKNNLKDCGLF

Compound	inhibition at 4 µM
c1nc2c(c(N3CCN(C4CCC4)CC3)n1)CCN(CC1CC1)C2 [Compound 89, 4-(4-cyclobutylpiperazin-1-yl)-7-(cyclopropylmethyl)-5,6,7,8-tetrahydropyrido[3,4-d]pyrimidine]	≥ 90%
CCCC(C)CN1CCc2c(ncnc2N2CCN(C3CCC3)CC2)C1 (stereo not drawn) [Compound 90, 4-(4-cyclobutylpiperazin-1-yl)-7-(2-methylpentyl)-5,6,7,8-tetrahydropyrido[3,4-d]pyrimidine]	≥ 90%
Cc1ccc(CN2CCc3c(ncnc3N3CCN(C4CCC4)CC3)C2)cc1C [Compound 91, 4-(4-cyclobutylpiperazin-1-yl)-7-(3,4-dimethylbenzyl)-5,6,7,8-tetrahydropyrido[3,4-d]pyrimidine]	≥ 90%
c1nc2c(c(N3CCN(C4CCC4)CC3)n1)CCN(Cc1ccc3c(c1)OCCO3)C2 [Compound 92, 4-(4-cyclobutylpiperazin-1-yl)-7-(2,3-dihydro-1,4-benzodioxin-6-ylmethyl)-5,6,7,8-tetrahydropyrido[3,4-d]pyrimidine]	≥ 90%
c1ccc2nc(CN3CCc4c(ncnc4N4CCN(C5CCC5)CC4)C3)ccc2c1 [Compound 93, 4-(4-cyclobutylpiperazin-1-yl)-7-(quinolin-2-ylmethyl)-5,6,7,8-tetrahydropyrido[3,4-d]pyrimidine]	≥ 90%
COc1cccc(CN2CCc3c(ncnc3N3CCN(C4CCC4)CC3)C2)c1OC [Compound 94, 4-(4-cyclobutylpiperazin-1-yl)-7-(2,3-dimethoxybenzyl)-5,6,7,8-tetrahydropyrido[3,4-d]pyrimidine]	≥ 90%
COc1ccc(OC)c(CN2CCc3c(ncnc3N3CCN(C4CCC4)CC3)C2)c1 [Compound 95, 4-(4-cyclobutylpiperazin-1-yl)-7-(2,5-dimethoxybenzyl)-5,6,7,8-tetrahydropyrido[3,4-d]pyrimidine]	≥ 90%
c1nc2c(c(N3CCN(C4CCC4)CC3)n1)CCN(Cc1ccc(N3CCCC3)nc1)C2 [Compound 96, 4-(4-cyclobutylpiperazin-1-yl)-7-[(6-pyrrolidin-1-ylpyridin-3-yl)methyl]-5,6,7,8-tetrahydropyrido[3,4-d]pyrimidine]	≥ 90%
Cc1c(F)cccc1CN1CCc2c(ncnc2N2CCN(C3CCC3)CC2)C1 [Compound 97, 4-(4-cyclobutylpiperazin-1-yl)-7-(3-fluoro-2-methylbenzyl)-5,6,7,8-tetrahydropyrido[3,4-d]pyrimidine]	≥ 90%
Clc1ccccc1CN1CCc2c(ncnc2N2CCN(C3CCC3)CC2)C1 [Compound 98, 7-(2-chlorobenzyl)-4-(4-cyclobutylpiperazin-1-yl)-5,6,7,8-tetrahydropyrido[3,4-d]pyrimidine]	≥ 90%
Clc1ccc(CN2CCc3c(ncnc3N3CCN(C4CCC4)CC3)C2)c(Cl)c1 [Compound 99, 4-(4-cyclobutylpiperazin-1-yl)-7-(2,4-dichlorobenzyl)-5,6,7,8-tetrahydropyrido[3,4-d]pyrimidine]	≥ 90%
c1nc2c(c(N3CCN(C4CCC4)CC3)n1)CCN(Cc1ccc(N3CCCC3)cc1)C2 [Compound 100, 4-(4-cyclobutylpiperazin-1-yl)-7-(4-pyrrolidin-1-ylbenzyl)-5,6,7,8-tetrahydropyrido[3,4-d]pyrimidine]	≥ 90%
CC(c1ccccc1)N1CCc2c(ncnc2N2CCN(C3CCC3)CC2)C1 (stereo not drawn) [Compound 101, 4-(4-cyclobutylpiperazin-1-yl)-7-(1-phenylethyl)-5,6,7,8-tetrahydropyrido[3,4-d]pyrimidine]	≥ 90%
CC(c1ccccc1F)N1CCc2c(ncnc2N2CCN(C3CCC3)CC2)C1 (stereo not drawn) [Compound 102, 4-(4-cyclobutylpiperazin-1-yl)-7-[1-(2-fluorophenyl)ethyl]-5,6,7,8-tetrahydropyrido[3,4-d]pyrimidine]	≥ 90%
CC(c1cccc(F)c1)N1CCc2c(ncnc2N2CCN(C3CCC3)CC2)C1 (stereo not drawn) [Compound 103, 4-(4-cyclobutylpiperazin-1-yl)-7-[1-(3-fluorophenyl)ethyl]-5,6,7,8-tetrahydropyrido[3,4-d]pyrimidine]	≥ 90%
CC(c1ccc(F)cc1)N1CCc2c(ncnc2N2CCN(C3CCC3)CC2)C1 (stereo not drawn) [Compound 104, 4-(4-cyclobutylpiperazin-1-yl)-7-[1-(4-fluorophenyl)ethyl]-5,6,7,8-tetrahydropyrido[3,4-d]pyrimidine]	≥ 90%
Cc1cccc(C(C)N2CCc3c(ncnc3N3CCN(C4CCC4)CC3)C2)c1 (stereo not drawn) [Compound 105, 4-(4-cyclobutylpiperazin-1-yl)-7-[1-(3-methylphenyl)ethyl]-5,6,7,8-tetrahydropyrido[3,4-d]pyrimidine]	≥ 90%
Cc1ccc(C(C)N2CCc3c(ncnc3N3CCN(C4CCC4)CC3)C2)cc1 (stereo not drawn) [Compound 106, 4-(4-cyclobutylpiperazin-1-yl)-7-[1-(4-methylphenyl)ethyl]-5,6,7,8-tetrahydropyrido[3,4-d]pyrimidine]	≥ 90%

Compound	inhibition at 4 µM
CC(c1nccn1C)N1CCc2c(ncnc2N2CCN(C3CCC3)CC2)C1 (stereo not drawn) [Compound 107, 4-(4-cyclobutylpiperazin-1-yl)-7-[1-(1-methyl-1H-imidazol-2-yl)ethyl]-5,6,7,8-tetrahydropyrido[3,4-d]pyrimidine]	≥ 90%
CC(c1ccnc2ccccc12)N1CCc2c(ncnc2N2CCN(C3CCC3)CC2)C1 (stereo not drawn) [Compound 108, 4-(4-cyclobutylpiperazin-1-yl)-7-(1-quinolin-4-ylethyl)-5,6,7,8-tetrahydropyrido[3,4-d]pyrimidine]	≥ 90%
CC(c1cnc2ccccc2c1)N1CCc2c(ncnc2N2CCN(C3CCC3)CC2)C1 (stereo not drawn) [Compound 109, 4-(4-cyclobutylpiperazin-1-yl)-7-(1-quinolin-3-ylethyl)-5,6,7,8-tetrahydropyrido[3,4-d]pyrimidine]	≥ 90%
Cc1cccc(C(C)N2CCc3c(ncnc3N3CCN(C4CCC4)CC3)C2)n1 (stereo not drawn) [Compound 110, 4-(4-cyclobutylpiperazin-1-yl)-7-[1-(6-methylpyridin-2-yl)ethyl]-5,6,7,8-tetrahydropyrido[3,4-d]pyrimidine]	≥ 90%
CC(c1ccc(N2CCOCC2)nc1)N1CCc2c(ncnc2N2CCN(C3CCC3)CC2)C1 (stereo not drawn) [Compound 111, 4-(4-cyclobutylpiperazin-1-yl)-7-[1-(6-morpholin-4-ylpyridin-3-yl)ethyl]-5,6,7,8-tetrahydropyrido[3,4-d]pyrimidine]	≥ 90%
Cc1cc(C(C)N2CCc3c(ncnc3N3CCN(C4CCC4)CC3)C2)n(C)n1 (stereo not drawn) [Compound 112, 4-(4-cyclobutylpiperazin-1-yl)-7-[1-(1,3-dimethyl-1H-pyrazol-5-yl)ethyl]-5,6,7,8-tetrahydropyrido[3,4-d]pyrimidine]	≥ 90%
COc1ccccc1C(C)N1CCc2c(ncnc2N2CCN(C3CCC3)CC2)C1 (stereo not drawn) [Compound 113, 4-(4-cyclobutylpiperazin-1-yl)-7-[1-(2-methoxyphenyl)ethyl]-5,6,7,8-tetrahydropyrido[3,4-d]pyrimidine]	≥ 90%
COc1ccc(C(C)N2CCc3c(ncnc3N3CCN(C4CCC4)CC3)C2)c(OC)c1 (stereo not drawn) [Compound 114, 4-(4-cyclobutylpiperazin-1-yl)-7-[1-(2,4-dimethoxyphenyl)ethyl]-5,6,7,8-tetrahydropyrido[3,4-d]pyrimidine]	≥ 90%
CC(C)c1ccc(C(C)N2CCc3c(ncnc3N3CCN(C4CCC4)CC3)C2)cc1 (stereo not drawn) [Compound 115, 4-(4-cyclobutylpiperazin-1-yl)-7-[1-(4-isopropylphenyl)ethyl]-5,6,7,8-tetrahydropyrido[3,4-d]pyrimidine]	≥ 90%
CC(C)CC(C)N1CCc2c(ncnc2N2CCN(C3CCC3)CC2)C1 (stereo not drawn) [Compound 116, 4-(4-cyclobutylpiperazin-1-yl)-7-(1,3-dimethylbutyl)-5,6,7,8-tetrahydropyrido[3,4-d]pyrimidine]	≥ 90%
CCC(C)N1CCc2c(ncnc2N2CCN(C3CCC3)CC2)C1 (stereo not drawn) [Compound 117, 7-sec-butyl-4-(4-cyclobutylpiperazin-1-yl)-5,6,7,8-tetrahydropyrido[3,4-d]pyrimidine]	≥ 90%
CCCC(C)N1CCc2c(ncnc2N2CCN(C3CCC3)CC2)C1 (stereo not drawn) [Compound 118, 4-(4-cyclobutylpiperazin-1-yl)-7-(1-methylbutyl)-5,6,7,8-tetrahydropyrido[3,4-d]pyrimidine]	≥ 90%
CCCCC(C)N1CCc2c(ncnc2N2CCN(C3CCC3)CC2)C1 (stereo not drawn) [Compound 119, 4-(4-cyclobutylpiperazin-1-yl)-7-(1-methylpentyl)-5,6,7,8-tetrahydropyrido[3,4-d]pyrimidine]	≥ 90%
CCCCCC(C)N1CCc2c(ncnc2N2CCN(C3CCC3)CC2)C1 (stereo not drawn) [Compound 120, 4-(4-cyclobutylpiperazin-1-yl)-7-(1-methylhexyl)-5,6,7,8-tetrahydropyrido[3,4-d]pyrimidine]	≥ 90%
CC(C)C(C)N1CCc2c(ncnc2N2CCN(C3CCC3)CC2)C1 (stereo not drawn) [Compound 121, 4-(4-cyclobutylpiperazin-1-yl)-7-(1,2-dimethylpropyl)-5,6,7,8-tetrahydropyrido[3,4-d]pyrimidine]	≥ 90%
CCC(C)C(C)N1CCc2c(ncnc2N2CCN(C3CCC3)CC2)C1 (stereo not drawn) [Compound 122, 4-(4-cyclobutylpiperazin-1-yl)-7-(1,2-dimethylbutyl)-5,6,7,8-tetrahydropyrido[3,4-d]pyrimidine]	≥ 90%
CCC(CC)C(C)N1CCc2c(ncnc2N2CCN(C3CCC3)CC2)C1 (stereo not drawn) [Compound 123, 4-(4-cyclobutylpiperazin-1-yl)-7-(2-ethyl-1-methylbutyl)-5,6,7,8-tetrahydropyrido[3,4-d]pyrimidine]	≥ 90%
CC(C1CC1)N1CCc2c(ncnc2N2CCN(C3CCC3)CC2)C1 (stereo not drawn) [Compound 124, 4-(4-cyclobutylpiperazin-1-yl)-7-(1-cyclopropylethyl)-5,6,7,8-tetrahydropyrido[3,4-d]pyrimidine]	≥ 90%
